The target of assay [1] is T1, Thermolysin (Bacillus thermoproteolyticus, UniProt P00800).
T1 sequence (P00800 whole entry): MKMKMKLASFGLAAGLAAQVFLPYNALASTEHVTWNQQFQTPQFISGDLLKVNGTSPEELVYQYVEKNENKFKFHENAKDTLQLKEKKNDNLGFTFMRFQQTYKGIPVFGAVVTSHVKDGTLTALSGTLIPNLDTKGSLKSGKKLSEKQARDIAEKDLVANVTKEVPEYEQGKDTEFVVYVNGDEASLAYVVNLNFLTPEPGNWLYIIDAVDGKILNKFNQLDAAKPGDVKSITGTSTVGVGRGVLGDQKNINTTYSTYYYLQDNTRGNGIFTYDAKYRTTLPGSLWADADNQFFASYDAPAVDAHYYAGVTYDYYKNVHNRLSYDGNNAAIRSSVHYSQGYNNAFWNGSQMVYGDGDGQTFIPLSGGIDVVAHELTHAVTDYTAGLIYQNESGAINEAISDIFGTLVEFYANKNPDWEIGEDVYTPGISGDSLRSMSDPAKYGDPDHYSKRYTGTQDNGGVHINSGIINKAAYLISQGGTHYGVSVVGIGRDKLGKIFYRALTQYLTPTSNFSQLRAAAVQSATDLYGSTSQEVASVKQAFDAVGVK
The assay can be described thus: Inhibitory activity against thermolysin using N-[3-(2-furyl)acryloyl]-Gly-l-leucineamide (FA-Gly-l-Leu-NH2) as substrate.

Assay [2] is described as follows: Ratio of Km to that of Kcat against thermolysin.
Assay [3] concerns the target T1, Thermolysin. Kind of assay: Inhibitory activity against thermolysin.

Ki and Km/Kcat data for 5 compounds are collected here from ChEMBL document CHEMBL1136223, “Reversed hydroxamate-bearing thermolysin inhibitors mimic a high-energy intermediate along the enzyme-catalyzed proteolytic reaction pathway” (Bioorg Med Chem Lett, 2003).

Turning to `CC(C)C[C@H](CN(O)C=O)C(=O)NC(=O)[C@@H](C)N`, the Ki stood at 383 µM at Thermolysin [1] and 16.6 µM on Thermolysin [3]. In addition, the Km/Kcat in assay [2] came to 3200 µM/s.

For the compound `CC(C)C[C@H](CN(O)C=O)C(N)=O`, the results for the Ki at Thermolysin [1] and on Thermolysin [3] were 52.8 µM and 20.6 µM, respectively. Further, in assay [2], the Km/Kcat worked out at 196 µM/s.

In the case of `CC(C)C[C@H](CN(O)C=O)C(=O)NC(=O)CN`, the Ki worked out at 14.7 µM on Thermolysin [1] and 10.9 µM at Thermolysin [3]. Further, the Km/Kcat in assay [2] worked out at 165 µM/s.

As for `CC(C)C[C@H](CN(O)C=O)C(=O)NC(=O)[C@@H](N)Cc1ccccc1`, the Ki was found to be 1.84 µM at Thermolysin [1] and 2.4 µM at Thermolysin [3]. Also, the Km/Kcat in assay [2] stood at 20 µM/s.

With `CC(C)C[C@H](CN(O)C=O)C(=O)NC(=O)[C@H](C)N`, the Ki at Thermolysin [1] came to 2.49 µM; on Thermolysin [3] it was 10.6 µM. The Km/Kcat in assay [2] was 13.6 µM/s.
